Experimental data taken from patent publication US20050245571A1, “Amine derivative” (priority 2001, published 2005).

What was measured:
human SSTR2 = molecular target: T1, human SSTR2 (Homo sapiens, UniProt P30874); test: Binding inhibition of 125I-somatostatin-14, SSTR2 membrane fraction; conditions: 125I-somatostatin-14 binding, CHO membrane fraction, 25° C. 60 minutes, Hill plots
T1 construct: expressed in transfected cells; host or cells: CHO (dhfr-) cells, strain SSTR2-HS5-9, plasmid pAC01 (pAKKO-111 vector)
Procedure: (4) Cloning of Human Somatostatin Receptor Protein Subtype 2 (SSTR2) DNA
pAKKO-111 mentioned under the above (2) was used as the expression vector in CHO (Chinese Hamster Ovary) cells. 5 μg of the plasmid having human SSTR2 cDNA fragment obtained under the above (4) was digested with the restriction enzyme Sal I and subjected to electrophoresis on 1% agarose gel to recover the 1.1 kb DNA fragment encoding human SSTR2. Next, 1 μg of the above-mentioned expression vector pAKKO-111 (5.5 kb) was digested with Sal I to prepare the cloning site for insertion of human SSTR2 DNA fragment. Said expression vector fragment and the 1.1 kb DNA fragment were ligated with T4 DNA ligase. The reaction mixture was introduced into E. coli JM109 by the calcium chloride method to obtain the expression plasmid pAC01 in which human SSTR2 DNA fragment was inserted in regular direction against the promoter from the transformants. This transformant is expressed as Escherichia coli JM109/pAC-01.
1×10^6 CHO (dhfr^−) cells were cultured for 24 hours in HAM F12 medium containing 10% bovine fetal serum on a laboratory dish of 8 cm in diameter. To the cells was transfected 10 μg of the human SSTR2 cDNA expression plasmid, pA-C01, obtained under the above (5) by the calcium phosphate method (Cell Phect Transfection Kit: Pharmacia). The medium was switched to DMEM medium containing 10% dialyzed bovine fetal serum 24 hours after the transfection to select the colony-forming cells (i.e. DHFR^+ cells) in this medium. Further, the selected cells were cloned from a single cell by the limiting dilution method and a cell strain which highly expresses human SSTR2, SSTR2-HS5-9, was selected.
The receptor binding inhibition rate (%) of the subject compound was calculated using each of the membrane fractions prepared in Experimental Examples 1 and 2.
The membrane fraction was diluted with a buffer solution for assay to adjust the concentration to 3 μg/ml. The diluate was placed in tubes each in quantity of 173 μl. To this were simultaneously added 2 μl of a solution of a subject compound in DMSO and 25 μl of a […] radioisotope-labeled somatostatin-14 (^125I-somatostatin-14: Amersham). For measurement of the maximum binding, a reaction mixture added with 2 μl of DMSO and 25 μl of a […] ^125I-somatostatin was prepared. For measurement of non-specific binding, a reaction mixture added with 2 μl of a 100 μM somatostatin solution in DMSO and 25 μl of a 200 pM ^125I-somatostatin solution was prepared at the same time. The mixtures were allowed to react at 25° C. for 60 minutes. Then, the reaction mixture was filtered by aspiration using a Whatman glass filter (GF-B) treated with polyethylenine. After filtration, the radioactivity of ^125I-somatostatin-14 remaining on the filter paper was measured by a γ-counter. The binding inhibition rate (%) of each subject compound was calculated by the following formula: (TB-SB)/(TB-NSB)×100 • SB: radioactivity when a compound was added • TB: maximum binding radioactivity • NSB: non-specific binding radioactivity
The binding inhibition rates were measured by changing the concentrations of the subject compound, and the 50% inhibiting concentration of the subject compound (IC50 value) was calculated by the Hill plots. The results are shown in [Table 1].

human SSTR3 = molecular target: T2, human SSTR3 (Homo sapiens, UniProt P32745); test: Binding inhibition of 125I-somatostatin-14, SSTR3 membrane fraction; conditions: 125I-somatostatin-14 binding, CHO membrane fraction, 25° C. 60 minutes, Hill plots
T2 construct: expressed in transfected cells; host or cells: CHO (dhfr-) cells, strain SSTR3-15-19, plasmid pA1-11-SSTR3 (pAKKO-111 vector)

human SSTR5 = molecular target: T3, human SSTR5 (Homo sapiens, UniProt P35346); test: Binding inhibition of 125I-somatostatin-14, SSTR5 membrane fraction; conditions: 125I-somatostatin-14 binding, CHO membrane fraction, 25° C. 60 minutes, Hill plots
T3 construct: expressed in transfected cells; host or cells: CHO (dhfr-) cells, strain SSTR5-32-4, plasmid pA1-11-SSTR5 (pAKKO-111 vector)

glucagon secretion = test: Glucagon Secretion Inhibitory Activity Test (Rat); assay type: in vivo; conditions: SD rats male fasted, 3 mg/kg oral, insulin 2 U/kg s.c. 120 minutes later, plasma glucagon 30 minutes after insulin
Procedure: Glucagon Secretion Inhibitory Activity Test (Rat)
A 0.5% methylcellulose suspension containing the subject compound (3 mg/kg body weight) (compound administration group) or a 0.5% methylcellulose suspension (compound non-administration group) was orally administered to SD rats (male, 7 weeks of age) after fasting overnight, and 120 minutes later, insulin (2 U/kg body weight, Novo Nordisk) was subcutaneously administered. After 30 minutes from the insulin administration, the blood was,drawn from the vein of eyegrounds of the rats using capillary, and blood plasma was separated by centrifugation. The concentration of glucagon in the obtained blood plasma was measured by radioimmunoassay using a Daiichi glucagon kit (Daiichi Isotope). As a non-treated group, the concentration of glucagon in the blood plasma of rat of the compound non-administration group free of insulin administration was measured in the same manner as above. […]

T3 sequence (P35346 whole entry): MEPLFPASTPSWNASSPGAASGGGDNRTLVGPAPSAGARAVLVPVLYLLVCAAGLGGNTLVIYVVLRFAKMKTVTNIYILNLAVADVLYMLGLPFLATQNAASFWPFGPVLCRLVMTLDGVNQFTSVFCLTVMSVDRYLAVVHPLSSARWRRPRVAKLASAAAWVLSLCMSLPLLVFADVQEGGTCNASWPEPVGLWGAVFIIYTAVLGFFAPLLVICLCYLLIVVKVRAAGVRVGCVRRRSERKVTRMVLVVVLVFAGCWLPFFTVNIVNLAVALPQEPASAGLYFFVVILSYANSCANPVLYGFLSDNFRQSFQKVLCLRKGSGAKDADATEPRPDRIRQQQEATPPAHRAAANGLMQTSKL
T1 sequence (P30874 whole entry): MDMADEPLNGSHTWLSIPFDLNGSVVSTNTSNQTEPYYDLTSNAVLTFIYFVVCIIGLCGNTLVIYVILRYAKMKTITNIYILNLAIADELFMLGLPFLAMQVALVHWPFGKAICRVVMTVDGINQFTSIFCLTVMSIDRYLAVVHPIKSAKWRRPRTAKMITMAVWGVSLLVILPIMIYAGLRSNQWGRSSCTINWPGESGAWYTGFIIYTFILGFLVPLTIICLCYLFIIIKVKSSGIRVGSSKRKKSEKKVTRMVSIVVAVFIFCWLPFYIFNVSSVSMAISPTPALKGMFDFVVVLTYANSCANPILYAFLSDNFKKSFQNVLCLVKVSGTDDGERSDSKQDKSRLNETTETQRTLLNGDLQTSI
T2 sequence (P32745 whole entry): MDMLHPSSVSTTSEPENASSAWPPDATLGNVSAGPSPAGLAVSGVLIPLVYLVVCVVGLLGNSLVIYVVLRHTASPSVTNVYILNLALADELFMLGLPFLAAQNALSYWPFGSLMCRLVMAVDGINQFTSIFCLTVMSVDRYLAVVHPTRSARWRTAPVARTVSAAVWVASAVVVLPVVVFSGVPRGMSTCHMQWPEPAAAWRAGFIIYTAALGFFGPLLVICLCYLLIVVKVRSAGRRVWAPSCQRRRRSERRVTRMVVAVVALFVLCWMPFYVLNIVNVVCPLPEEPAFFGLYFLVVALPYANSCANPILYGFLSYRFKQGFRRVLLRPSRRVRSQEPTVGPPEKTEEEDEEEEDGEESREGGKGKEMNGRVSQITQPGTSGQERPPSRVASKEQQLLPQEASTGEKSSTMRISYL

Compound | IC50 (human SSTR2) [nM] | IC50 (human SSTR3) [nM] | IC50 (human SSTR5) [nM] | glucagon secretion (% of control) (glucagon secretion)
CC(c1c[nH]c2ccccc12)C(NC(=O)N1CCC(Oc2ccc(O)cc2)CC1)C(=O)N1C[C@@H](CN(C)C)Cc2cc(Cl)ccc21 (single isomer, unassigned; (-)) [Example 141] | 0.05 | 3 | 10 | –
C[C@@H](c1c[nH]c2ccccc12)[C@@H](NC(=O)C1CCN(C(=O)c2cc3ccccc3n2C)CC1)C(=O)N1C[C@@H](CN(C)C)Cc2cc(Cl)ccc21 [Example 6, N-[(1R,2S)-1-[((3R)-6-chloro-3-[(dimethylamino)methyl]-3,4-dihydro-1(2H)-quinolinyl)carbonyl]-2-(1H-indol-3-yl)propyl]-1-[(1-methyl-1H-indol-2-yl)carbonyl]-4-piperidinecarboxamide] | 0.2 | 30 | 60 | 15.6 % of control
C[C@@H](c1c[nH]c2ccccc12)[C@@H](NC(=O)N1CCC(Oc2ccccc2)CC1)C(=O)N1C[C@@H](CN(C)C)Cc2cc(Cl)ccc21 [Example 42, N-[(1R,2S)-1-[((3R)-6-chloro-3-[(dimethylamino)methyl]-3,4-dihydro-1(2H)-quinolinyl)carbonyl]-2-(1H-indol-3-yl)propyl]-4-phenoxy-1-piperidinecarboxamide] | 0.1 | 6 | 40 | 3.0 % of control
C[C@@H](c1c[nH]c2ccccc12)[C@@H](NC(=O)N1CCC(Oc2ccc(F)cc2)CC1)C(=O)N1C[C@@H](CN(C)C)Cc2cc(Cl)ccc21 [Example 153, N-[(1R,2S)-1-[[(3R)-6-chloro-3-[(dimethylamino)methyl]-3,4-dihydro-1(2H)-quinolinyl]carbonyl]-2-(1H-indol-3-yl)propyl]-4-(4-fluorophenoxy)-1-piperidinecarboxamide] | 0.1 | 10 | 40 | –
C[C@@H](c1c[nH]c2ccccc12)[C@@H](NC(=O)N1CCN(C(=O)c2ccccc2)CC1)C(=O)N1C[C@@H](CN(C)C)Cc2cc(Cl)ccc21 [Example 157, 4-benzoyl-N-[(1R,2S)-1-[[(3R)-6-chloro-3-[(dimethylamino)methyl]-3,4-dihydro-1(2H)-quinolinyl]carbonyl]-2-(1H-indol-3-yl)propyl]-1-piperazinecarboxamide] | 0.05 | 1 | 5 | –
